The values that follow are results of earlier work, collected in patent US5096924A, “Anticancer antibiotic MI43-37F11 substance” (501 Azidan Hojin Biseibutsu Kagaku Kenkyu Kai, priority 1989, dated 1992).

The test system of the data set is cyclic adenosine monophosphate (CAMP) phosphodiesterase. The conditions noted are these: disclosed in Japanese Kokai No. 71076/78; cited from earlier work.

As to `COc1cc2cc(CO)oc(=O)c2c(O)c1OC` [3-hydroxymethyl-6,7-dimethoxy-8-hydroxyisocumarin], the “inhibitory activity to cyclic adenosine monophosphate (CAMP) phosphodiesterase” value is on record as “inhibitory activity”.

In the case of `COc1c(O)cc2cc(CO)oc(=O)c2c1O` [3-hydroxymethyl-6,8-dihydroxy-7-methoxyisocumarin], the “inhibitory activity to cyclic adenosine monophosphate (CAMP) phosphodiesterase” value was “inhibitory activity”.
